This data set concerns hairy scalp of men with premature alopecia. As to conditions: 0.5% in excipient, 0.5 to 1 ml on the head scalp, one week.

Results on one compound are retold here after patent US20080261291A1 (priority 2004, published 2008).

Experimental: It is wanted to evaluate the genin of Calocarpum, (Chrysophyllum or Lucuma) as obtained of the example 6 according to this invention, as capillary rubefacient agent for which six affected gentlemen of premature alopecia are tried, to witch are requested to subject themselves to one weeks of test, which consists on being applied from 0.5 to 1 ml of the diluted products in test in the affected area of the head scalp in the clean skin. The two men of the group #1, receives the mixture of genin of Calocarpum, in a preparation consisting on the product as obtained of the example 6, to 0.5% in an excipient. The excipient composition for 100 g is: water 20 g, propyleneglycol 25 g, sunflower oil 54.5 g. The two men of the group #2, receives the same composition of the previous excipient and resorcinol to 0.5%. The two men of the group #3, receives the before mentioned excipient alone. The following questionnaire is registered and the pertinent observations of the test are made.
Age; sex; since when they present the alopecia; duration of the applied treatment; 1.—Was the treatment irritating: a) it was not irritating, b) light, c) moderate, d) high, e) severe. 2.—Irritation type: a) hyperaemia (heat), b) inflammation, c) vesicatión (it produces blisters) 3.—keratolytic (desquamation production): a) without effect, b) light, c) moderate, d) extensive. […]

Regarding `Oc1cccc(O)c1` [resorcinol], the “keratolysis (desquamation production)” value is given as “moderate keratolysis”.
